Where “and” joins values, the source holds several entries; their conditions need not be identical. Equal values may be shown once.

Among the data in ChEMBL document CHEMBL1134583, “Synthesis and biological activity of D- and L-chiro-inositol 2,3,4,5-tetrakisphosphate: design of a novel and potent inhibitor of Ins(3,4,5,6)P4 1-kinase/Ins(1,3,4)P3 5/6-kinase” (J Med Chem, 2001) are IC50 values, retold here.

One experiment in a line: Inhibition against Inositol (3,4,5,6)P4 1-kinase from bovine aorta. Also on record: species or system Bos taurus.
`O=P(O)(O)OC1C(OP(=O)(O)O)[C@H](O)[C@H](O)C(OP(=O)(O)O)[C@@H]1O` (stereo not given in full): the IC50 (usually the concentration at which inhibition is half-maximal) is 0.17 µM and 0.2 µM.

In the case of `O=P(O)(O)OC1C(OP(=O)(O)O)[C@H](O)[C@H](OP(=O)(O)O)C(O)[C@@H]1O` (stereo not given in full), the half-inhibitory concentration (IC50) is 0.7 µM. This counts as sub-micromolar.

For `O=P(O)(O)OC1[C@H](O)C(O)C(OP(=O)(O)O)[C@H](O)[C@@H]1OP(=O)(O)O` (stereo not given in full), the IC50 was > 30 µM.

`O=P(O)(O)OC1C(O)[C@H](O)[C@H](OP(=O)(O)O)C(OP(=O)(O)O)[C@@H]1O` (stereo not given in full): it took 17 µM to reach half-maximal inhibition (IC50). In other words, the double-digit micromolar range.

`O=P(O)(O)OC1C(OP(=O)(O)O)[C@H](OP(=O)(O)O)[C@H](O)C(O)[C@@H]1O` (stereo not given in full): 4.2 µM corresponded to half-maximal inhibition (IC50).

Turning to `O=P(O)(O)OC1C(OP(=O)(O)O)[C@@H](O)[C@H](OP(=O)(O)O)C(OP(=O)(O)O)[C@@H]1O` (stereo not given in full), the IC50 is 14.5 µM. This IC50 is about 3.5-fold higher than that of the molecule before.

With `O=P(O)(O)O[C@@H]1[C@@H](OP(=O)(O)O)[C@@H](OP(=O)(O)O)[C@H](O)[C@@H](O)[C@@H]1OP(=O)(O)O`, the IC50 was > 30 µM.

Consider `O=P(O)(O)O[C@@H]1[C@@H](OP(=O)(O)O)[C@@H](OP(=O)(O)O)[C@@H](O)[C@@H](O)[C@@H]1OP(=O)(O)O`, for which the concentration for half-maximal inhibition (IC50) is > 30 µM.

`O=P(O)(O)O[C@H]1[C@H](OP(=O)(O)O)[C@@H](OP(=O)(O)O)[C@@H](O)[C@H](O)[C@H]1OP(=O)(O)O` (stereo in doubt; 3): the IC50 turned out to be 1.5 µM.

Take `O=P(O)(O)O[C@H]1[C@H](OP(=O)(O)O)[C@@H](OP(=O)(O)O)[C@@H](O)[C@H](O)[C@H]1OP(=O)(O)O` (stereo in doubt; 12): the IC50 was 1.6 µM.

With `O=P(O)(O)O[C@H]1[C@H](O)[C@@H](OP(=O)(O)O)[C@H](OP(=O)(O)O)[C@@H](OP(=O)(O)O)[C@H]1O` (stereo in doubt; 13), half-maximal inhibition (IC50) was put at 16.7 µM.

Molecule `O=P(O)(O)O[C@H]1[C@H](O)[C@@H](OP(=O)(O)O)[C@H](OP(=O)(O)O)[C@@H](OP(=O)(O)O)[C@H]1O` (stereo in doubt; 14) had an IC50 of 9 µM. This IC50 lies about 1.9-fold lower than the previous one.

Molecule `O=P(O)(O)O[C@@H]1[C@H](O)[C@H](O)[C@@H](OP(=O)(O)O)[C@H](OP(=O)(O)O)[C@H]1O` [INS(1,4,5)P3] came in with an IC50 of 48 µM.

The molecule `O=P(O)(O)OC1C(OP(=O)(O)O)[C@H](OP(=O)(O)O)[C@H](OP(=O)(O)O)C(OP(=O)(O)O)[C@@H]1O` (stereo not given in full) [IONOSITOL (1,3,4,5,6) P5] registered a half-maximal inhibitory concentration (IC50) of 15 µM.

Another experiment can be described thus: Inhibition of Inositol (3,4,5,6)P4 1-kinase from bovine aorta. Also on record: species or system Bos taurus.
For the molecule `O=P(O)(O)OC1C(OP(=O)(O)O)[C@H](O)[C@H](O)C(OP(=O)(O)O)[C@@H]1O` (stereo not given in full), the IC50 amounted to 0.28 µM.
